Non-standard residues stand in square brackets, D forms with d. Residues, ends and D or L forms follow the SMILES beside them. *: point of attachment. Caffeoyl = O=C(/C=C/c1ccc(O)c(O)c1)*; βAla = NCCC(=O)O
What was measured:
[1] = test system: Candida albicans 74; experiment: Antimicrobial assay, agar/disc diffusion, C. albicans; assay type: cell-based; conditions: 6 μL of 20 μM solution on 6 mm paper disc, 24 h
Procedure: (§1) The microbial cultures were placed in a thin layer on sterile plates. On sterile paper discs, 6 μL of 20 μM solutions in distilled water of the test compounds was placed. Further, the discs were incorporated into a thin layer of sterile plates (Figure 3). The studies were triplicates for each concentration, and the diameters of the obtained zones represent the average value of the three results.
(§2) All newly synthesized derivatives of (KLAKLAK)2-NH2 at concentrations of 20 μM in distilled water were tested against model strains E. coli NBIMCC K12 407, B. subtilis NBIMCC 3562 and C. albicans NBIMCC 74. The strains were obtained from the National Bank for Industrial Microorganisms and Cell Cultures (NBIMCC, Sofia, Bulgaria). Exponential cultures (1 × 10^7 cfu/mL) of strains E. coli K12 407 were obtained in Luria-Bertani (LB, HiMedia, Mumbai, India); for B. subtilis 3562, an initial bacterial concentration of 1 × 10^6 cfu/mL was obtained in nutrient broth (NB, HiMedia, Mumbai, India); and for C. albicans 74, and initial bacterial concentration of 1 × 10^5 cfu/mL was obtained in yeast mold (YM) medium. Cultivation was performed in an ES-20/60 incubator shaker (Biosan, Riga, Latvia) at 30 °C for B. subtilis 3562 and at 37 °C for E. coli K12 407 and C. albicans 74 with shaking at 220 rpm for 24 h. The agar diffusion method was applied to determine the antimicrobial activity of the tested compounds. LB/NB/YM plates were inoculated by spreading 100 μL of each microbial culture on their surface, followed by incubation at 30/37 °C for penetration of suspension into the agar. After 30 min, sterile paper discs (6 mm in diameter) were soaked with the tested compounds in amounts of 6 µL and placed on the surface of agar Petri dishes. The plates were incubated at 30/37 °C for 24 h. Antimicrobial activity was assessed by measuring the diameter of the obtained inhibition zones. Sterile paper discs soaked with water were used as blank controls. Mean values were calculated by performing the experiments in triplicates.

[2] = test system: Bacillus subtilis 3562; experiment: Antimicrobial assay, agar/disc diffusion, B. subtilis; assay type: cell-based; conditions: 6 μL of 20 μM solution on 6 mm paper disc, 24 h
Procedure: as §1, §2

[3] = test system: Escherichia coli K12 407; experiment: Antimicrobial assay, agar/disc diffusion, E. coli; assay type: cell-based; conditions: 6 μL of 20 μM solution on 6 mm paper disc, 24 h
Procedure: as §1, §2

[4] = In vitro cytotoxicity, 3T3 NRU test; assay type: cell-based; conditions: mouse, BALB/3T3 clone A31 mouse embryo cells, 24 h incubation, 15 to 2000 μM, read-out: IC50 of Mean ± SD Cytotoxicity BALB 3T3 (CC50)
Procedure: The newly synthesized compounds were studied for cytotoxicity assessment by an in vitro 3T3 NRU test. The cells were incubated with the test substances at a concentration of 15 to 2000 μM for 24 h at 37 °C, 5% CO2 and 95% humidity. The cytotoxicity expressed in % relative to the negative control was determined.
The cytotoxicity testing was performed as described by Borenfreund et al. and the latest modification of the validated BALB/3T3 clone A31 Neutral Red Uptake Assay (3T3 NRU test). BALB/3T3 clone A31 mouse embryo cells were grown as a monolayer in 75 cm^2 tissue culture flasks in high-glucose DMEM (4.5 g/L), supplemented with 10% FBS and antibiotics. Cultures were maintained at 37.5 °C in a humidified atmosphere under 5% CO2. Cells were plated at a density of 1 × 10^4 cells in 100 μL culture medium in each well of 96-well flat-bottomed microplates and allowed to adhere for 24 h before treatment with test compounds, dissolved in DMSO and further diluted in culture medium. A wide concentration range was applied (from 15 to 2000 μM), and the cells were incubated for an additional 24 h. After treatment with Neutral Red medium, washing and application of the ethanol/acetic acid solution (NR Desorb), the absorption was measured on a TECAN microplate reader at wavelength 540 nm. The data obtained are on average from three independent experiments ± SD, n = 6.

[5] = test system: MCF-7; experiment: Antiproliferative activity, MTT dye-reduction assay, MCF-7; assay type: cell-based, human
Procedure: (§3) The compounds were studied for antiproliferative activity by MTT dye-reduction assay. Cell cultures from different cell lines (MCF-10A, MCF-7 and MDA-MB-231) were incubated with the test substances at a concentration of 15 to 2000 μM for 72 h at 37 °C, 5% CO2 and 95% humidity. The antiproliferative activity expressed in % relative to the negative control was determined.
(§4) The antiproliferative activity testing was performed on cell cultures from several human cell lines using the standard MTT dye-reduction assay, described by Mosmann. The assay is based on the metabolism of the tetrazolium salt 3-(4,5-dimethylthiazol-2-yl)-2,5-diphenyltetrazolium bromide (MTT) to insoluble formazan by mitochondrial reductases. The formazan concentration can be determined spectrophotometrically. The measured absorption is an indicator of cell viability and metabolic activity. The following cell lines were used in the experiments: mammary gland type A adenocarcinoma ER+, PR+ and HER2− (MCF-7); triple-negative breast cancer ER−, PR−, and HER2− (MDA-MB-231); and breast, nontumorigenic epithelial cell line (MCF-10A). The cell lines were routinely grown as monolayers in 75 cm^2 tissue culture flasks under standard conditions (described above). Cells were plated at a density of 1 × 10^3 cells in 100 µL in each well of 96-well flat-bottomed microplates and allowed to adhere for 24 h before treatment with test compounds. A concentration range from 15 to 2000 μM was applied for 72 h. Formazan absorption was registered using a microplate reader at λ = 540 nm. Antiproliferative activities were expressed as IC50 values (concentrations required for 50% inhibition of cell growth), calculated using nonlinear regression analysis (GraphPad Prism 4 Software, https://www.graphpad.com).

[6] = test system: MCF-10A; experiment: Antiproliferative activity, MTT dye-reduction assay, MCF-10A; assay type: cell-based, human; conditions: 72 h, read-out: IC50 of Mean ± SD Antiproliferative Activity MCF-10A
Procedure: as §3
MCF-10A is a reliable model for normal human mammary epithelial cells, which serves as a control in experiments to determine antitumor activity.
as §4

[7] = Hydrolytic stability in model buffer solutions by HPLC; assay type: physicochemical; conditions: 72 h, model buffer solutions pH 2, pH 7.4 and pH 9, HPLC
Procedure: HPLC profiles of all target compounds at three different pH values that mimic human pH in the stomach (pH 2), blood plasma (pH 7.4) and small intestine (pH 9) are presented in the Supplementary Materials.
The designed changes in the structures, i.e., C-terminal amide modification, as well as the introduction of a β-Ala moiety, lead to complete stability of the target compounds during the test period in all model conditions.
The obtained solution was made up to 1000.0 mL with dH2O; • (ii) Buffer with pH 7.4–2.38 g Na2HPO4, 0.19 g KH2PO4 and 8.0 g NaCl was dissolved in dH2O. The obtained solution was made up to 1000.0 mL with dH2O. • (iii) Buffer with pH 9.0–1000.0 mL of solution I was mixed with 420.0 mL of solution II. Solution I: 6.18 g of H3BO3 was dissolved in 0.1 mol/L KCl, and it was made up to 1000.0 mL with the same solvent; Solution II: 0.1 mol/L NaOH.

[8] = test system: MDA-MB-231; experiment: Antiproliferative activity, MTT dye-reduction assay, MDA-MB-231; assay type: cell-based, human
Procedure: as §3, §4

| SMILES | Inhibition zones size, Candida albicans 74 [1] | Inhibition zones size, Bacillus subtilis 3562 [2] | Inhibition zones size, Escherichia coli K12 407 [3] | CC50 at 24 h [4] | melting point | Inhibition zones size, Candida albicans 74 ([1]; listed as Si 5) | IC50 ([5]; MTT, 72 h, read-out: IC50 of Mean ± SD Antiproliferative Activity MCF-7) | SI ± SD MCF-7 (selective index) ([5]; SI = IC50 of MCF-10A/IC50 of MCF-7) | IC50 [6] | Hydrolytic stability [7] | IC50 ([8]; MTT, 72 h, read-out: IC50 of Mean ± SD Antiproliferative Activity MDA-MB-231) | SI ± SD MDA-MB-231 (selective index) ([8]; SI = IC50 of MCF-10A/IC50 of MDA-MB-231) |
| --- | --- | --- | --- | --- | --- | --- | --- | --- | --- | --- | --- | --- |
| CC(C)C[C@H](NC(=O)[C@H](CCCCN)NC(=O)/C=C/c1ccc(O)c(O)c1)C(=O)NCCC(=O)N[C@@H](CCCCN)C(=O)N[C@@H](CC(C)C)C(=O)NCCC(=O)N[C@@H](CCCCN)C(=O)N[C@@H](CCCCN)C(=O)N[C@@H](CC(C)C)C(=O)NCCC(=O)N[C@@H](CCCCN)C(=O)N[C@@H](CC(C)C)C(=O)NCCC(=O)N[C@@H](CCCCN)C(N)=O [Si12, Caf-(KLβ-AKLβ-AK)2-NH2] (Caffeoyl-KL[βAla]KL[βAla]KKL[βAla]KL[βAla]K-NH2) | did not show any antifungal activity | good antimicrobial activity | good antimicrobial activity | 880 ± 30.3 µM | 160 to 162 °C | – | – | – | – | – | – | – |
| CC(C)C[C@H](NC(=O)[C@H](CCCCN)NC(=O)CCNC(=O)[C@H](CC(C)C)NC(=O)[C@H](CCCCN)NC(=O)[C@H](CCCCN)NC(=O)CCNC(=O)[C@H](CC(C)C)NC(=O)[C@H](CCCCN)NC(=O)CCNC(=O)[C@H](CC(C)C)NC(=O)[C@@H](N)CCCCN)C(=O)NCCC(=O)N[C@@H](CCCCN)C(N)=O [Si5, (KLβ-AKLβ-AK)2-NH2] (H-KL[βAla]KL[βAla]KKL[βAla]KL[βAla]K-NH2) | did not show any antifungal activity | 11.16 ± 0.25 mm | 11.83 ± 0.27 mm | 1270 ± 70.7 µM | – | 0 mm | 1250 ± 34.1 µM | 1.028 ± 0.033 | 1290 ± 38.1 µM | complete hydrolytic stability | 1450 ± 15.7 µM | 0.890 ± 0.033 |
